Article PMC4601023, “Novel anticancer agent, SQAP, binds to focal adhesion kinase and modulates its activity” (Scientific Reports, 2015)

What was measured:
[1] = target: T1, MFE-2 (598–736) (Homo sapiens, UniProt P51659); assay: SPR analysis, immobilized His-tagged MFE-2 (598-736); assay type: binding; details: Biacore 3000, CM5 chip, 25 °C, read-out: dissociation constant (KD) for MFE-2
T1 construct: For MFE-2 (598–736) DNA was amplified; made in house; host or cells: E. coli Rosetta 2 (DE3) pLysS
T1 sequence (P51659 598-736): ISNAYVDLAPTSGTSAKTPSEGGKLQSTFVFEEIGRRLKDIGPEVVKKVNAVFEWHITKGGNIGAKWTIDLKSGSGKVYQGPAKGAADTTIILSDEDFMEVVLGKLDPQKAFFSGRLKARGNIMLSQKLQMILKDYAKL
From the text: (§1) SPR was utilized as an independent confirmation of the kinetic parameters between SQAP and the putative binding proteins. […] The recombinant proteins were then expressed in Escherichia coli and purified to homogeneity. In addition, full length, His-tagged ADRM1 and GST-tagged HR23B (GST-HR23B) were also used. The proteins were first immobilized on a CM5 sensor chip of the SPR biosensor (Biacore 3000). For GST-HR23B analysis, a GST protein was additionally immobilized and used as a control in order to eliminate possible nonspecific binding of SQAP. SQAP samples at different concentrations were then injected over the proteins immobilized on the sensor chip. As a negative control we used sulfoquynovosylpropanediol (SQP), which lacks the fatty acid moiety of SQAP (Fig. 1). […]
(§2) The binding kinetics of SCP-2, MFE-2, ADRM1, HR23B and FAK with SQAP and SQP were analyzed on a Biacore 3000 instrument (GE Healthcare, Little Chalfont, UK). […] The buffer of purified peptides was exchanged to HBS-P (150 mM NaCl, 0.005% Surfactant P20, 10 mM HEPES-NaOH pH 7.4) using a PD 10 column (GE Healthcare, Little Chalfont, UK) and the concentrations were quantified using DC protein assay kit (Bio-Rad Laboratories, Hercules, CA, USA). […] Kinetic parameters were determined by analyzing the data using BIAevaluation 4.1 software (GE Healthcare, Little Chalfont, UK).

[2] = target: T2, FAK (910–1052) (Homo sapiens, UniProt Q05397); assay: SPR analysis, immobilized His-tagged FAK (910-1052); assay type: binding; details: Biacore 3000, CM5 chip, 25 °C, read-out: dissociation constant (KD) for FAK
T2 construct: For FAK (910–1052) DNA was amplified; made in house; host or cells: E. coli BL21 (DE3)
T2 sequence (Q05397 910-1052): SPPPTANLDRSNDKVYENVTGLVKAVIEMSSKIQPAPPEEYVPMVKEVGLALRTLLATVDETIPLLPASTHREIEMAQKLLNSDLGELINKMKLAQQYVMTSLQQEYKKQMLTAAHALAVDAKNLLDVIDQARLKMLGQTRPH
From the text: as §1, §2

[3] = system: paxillin phosphorylation at Y118 in HUVEC; assay: Paxillin phosphorylation in HUVEC, Western blotting; assay type: cell-based, human; details: total paxillin unaltered
From the text: Furthermore, we looked at FAK signaling pathway to validate our results. Paxillin binds to FAK 919–938 residues which is a sequence contained within the region where SQAP is predicted to bind. Binding between paxillin and FAK results in paxillin phosphorylation at Y118[35][36]. Thus, we examined paxillin phosphorylation. […] Additionally, we studied Akt phosphorylation at S473 on account of FAK is a known factor in control of Akt activity. We observed that Akt phosphorylation was diminished when treated with SQAP or SQMG for 21 h (see Supplementary Fig. S3).
Cells were harvested and solubilized in RIPA buffer (20 mM Tris-HCl, pH 7.5, 1% Sodium deoxycholate, 150 mM NaCl, 5 mM EDTA, 1% Triton X-100, 0.1% SDS, 0.1%, 1 mM PMSF, 1 mM vanadate and 1 μg/mL leupeptin). Protein quantification was determined using the DC protein assay kit (Bio-Rad, Hercules, CA, USA). A total of 15 μg of each protein sample were separated by SDS–PAGE gels and blotted onto polyvinylidene difluoride membranes (Merck, Kenilworth, NJ, US). After blocking for 1 h with Blocking-One (Nacalai Tesque, Kyoto, Japan), proteins were detected by incubating the membranes with the primary antibody at 4 °C overnight (anti-Y397 2:2000, anti-Y925 5:2000 and anti-FAK 0.5:2000) followed by incubation with horseradish peroxidase-conjugated secondary antibodies at room temperature for 1 h (anti-mouse 0.5:2000 and anti-rabbit 0.4:2000).

[4] = system: human lung small cell carcinoma, Lu-65; assay: Tumor xenograft, SQAP plus X-irradiation; assay type: in vivo, KSN nude mice; details: 2 mg/kg i.v. five injections plus X-irradiation 8 Gy/fraction x 2; Supplementary Fig. S1, also ref 12
Protocol: Cell lines and animal studies: A human lung small cell carcinoma, Lu-65, was obtained from the Cell resource Center for Biomedical Research (Sendai, Japan) and maintained in RPMI-1640 medium supplemented with 10% fetal bovine serum, 100 units/ml penicillin, 100 μg/ml streptomycin, and 1 mM sodium pyruvate at 37 °C in 5% CO2 humidified atmosphere. Viable tumor cell (1 × 106) were implanted subcutanceously into the right hind legs of male KSN nude mice (6–8 weeks old). After the tumor volume reached 50 to 100 mm3, the tumor were treated and the tumor growth was monitored by palpation. The size of the palpable tumors was measured using calipers every two days. The tumor volume (V, […]) was estimated based on the formula as follows; (minor axis)^2 × (major axis) × 0.5.
Treatments: Synthesized SQAP was prepared one day before experimentation, and dissolved in saline at the appropriate concentrations. To analyze the tumor radioresponse, 2 mg/kg SQAP (dissolved in 100 μl of saline) was administered intravenously to the ‘SQAP’ group and ‘Combination’ group (adiministered five times daily from days zero to four). The same amount of saline was injected in the ‘control’ group and ‘X-irradiation’ group. […]

`CCCCCCCCCCCCCCCCCC(=O)OCCCO[C@H]1O[C@H](CS(=O)(=O)O)[C@@H](O)[C@H](O)[C@H]1O` [SQAP, sulfoquynovosylacylpropanediol] was tested, and the Kd [1] was 14.2 µM, the Kd [2] was 3.24 µM and the “paxillin phosphorylation at Y118” value [3] was “inhibition of paxillin-phosphorylation”. For the same compound, the “tumor arrest in combination with irradiation” value [4] was “synergistically enhanced tumor arrest”.
